According to patent US7932036B1, “Methods of determining acute myeloid leukemia response to treatment with farnesyltransferase” (Veridex, LLC, priority 2008, dated 2011):

Tests used:
[1] = test system: previously untreated, poor-risk acute myeloid leukemia (AML); experiment: Phase 2 study of tipifarnib in older adults with previously untreated, poor-risk AML: clinical response and overall survival; format: in vivo, human
Description: The current study utilized 67 bone marrow samples collected from an open label, multicenter, non-comparative phase 2 study investigating the efficacy and safety of farnesyltransferase inhibition with tipifarnib (R115777, ZARNESTRA®) in 158 older adults with previously untreated, poor-risk AML. The clinical results have been published elsewhere. Lancet et al. (2006).
Lancet et al. (2006). Briefly, HI was defined as any bone marrow blast count less than 5% or a reduction in bone marrow blasts by at least half. Progressive disease (PD) was defined as either >50% increase in bone marrow or circulating blast % from baseline, or new appearance of circulating blasts (on at least 2 consecutive occasions). Stable disease (SD) was defined as any response not meeting CR, PR, HI, or PD criteria.
This study examined gene expression profiles of leukemic bone marrow samples from patients enrolled in a Phase 2 clinical trial of the farnesyltransferase inhibitor tipifarnib in elderly patients with previously untreated poor-risk acute myelogenous leukemia. Lancet et al. (2006). Bone marrow from 67 patients was collected before treatment with tipifarnib and leukemic myeloid cells were enriched by Ficoll-density centrifugation (Table 1). Good quality total RNA from 13 responders (9 CR, 4 HI), 8 stable disease and 13 progressive disease patients was amplified, labeled, and hybridized to the Affymetrix U133A GeneChip. A total of 30 samples were evaluated by qPCR for validation of specific genes and 32 samples were evaluated for N-Ras mutational status.

[2] = test system: relapsed or refractory AML; experiment: Independent set of 54 relapsed/refractory AML patients treated with tipifarnib; format: in vivo, human; settings: for difference in overall survival between predicted responders and progressors: relapsed/refractory AML
Description: We next performed external validation of the TSP classifier in an independent microarray dataset comprising of 54 relapsed/refractory AML patient samples. 20070048782. Importantly, a diagnostic assay that aims to predict response to a cancer therapy should have a high sensitivity (and negative predictive value) since it is important to capture as many potential responders as possible. Therefore, to define an appropriate cutoff for testing the TSP classifier we considered the need to obtain a high sensitivity of predicting responders while maintaining an acceptable level of specificity. In the training set, the level of specificity that could be achieved ranged from approximately 30% to 100% when the sensitivity was set at 100% to 80%, respectively. To ensure the classifier would predict as many responders as possible we tested a conservative cutoff that provided a specificity of approximately 60% in the training set. When this cutoff was applied to the independent testing set of relapsed/refractory AML, the RASGRP1:APTX gene classifier stratified responders with 92% NPV and 27.6% PPV (compared to 18.5% prevalence) (FIG. 3C). The associated odds ratio for being a responder was 4.38.
In the absence of a larger independent set of newly diagnosed AML samples we also utilized 54 relapsed or refractory AML samples from our previous investigation as an independent testing set (20070048782). […] Since the prevalence of responders in that dataset was 18% this represents an improvement of overall response of approximately 50%. […] Importantly we found no association with the two-gene classifier and patient prognosis in an independent set of AML patients who were treated with chemotherapeutics. […] Further work needs to be done to clarify whether the RASGRP1:APTX expression ratio has utility for other classes of FTIs.

[3] = Kaplan Meier, RASGRP1 gene classifier, newly diagnosed AML (FIG. 1B)
[4] = RASGRP1:APTX qPCR classifier, cut-point 0, 30 newly diagnosed AML samples

## Cn1cncc1[C@@](N)(c1ccc(Cl)cc1)c1ccc2c(c1)c(-c1cccc(Cl)c1)cc(=O)n2C [tipifarnib]
[1]; [3]
  median overall survival of the responders: 386 days
  median overall survival of those with progressive disease: 68 days
[1]; [4]
  median overall survival of the predicted resistant patients: 82 days
  median overall survival of those classified as responders: 295 days
[1]; RASGRP1:APTX top scoring pair, training set, newly diagnosed AML
  difference in overall survival between predicted responders and non-responders: 357 days
[2]; 54 relapsed/refractory AML patient samples
  prevalence of responders: 18%
[2]; RASGRP1:APTX TSP classifier
  difference in overall survival between predicted responders and progressors: 98 days
[2]; RASGRP1 alone
  difference in overall survival between predicted responders and progressors: 56 days
[2]; two-gene classifier, relapsed or refractory AML
  median overall survival of predicted responders versus patients predicted to be resistant: approximately 3 fold
